Assay results reported in patent publication US5191079A, “Quinolinecarboxylic acid derivatives” (priority 1990, dated 1993).
Values after ≈ are worked out from the molar mass of the structure shown. Where a name gives a salt, the structure may show the parent alone. Read-outs that look alike come from different tables or passages of the source.

Legend:
Format in all cases: cell-based
[1] = test system: Streptococcus pneumoniae IID 552; test: MIC, Experiment 1; settings: IID552, S. pneumoniae IID 552, Gram +, agar with 5% defibrinated horse blood, read-out: Min. inhib. concentr. (MIC)
Method: (§1) The compounds of the present invention (B, E, G, H, M, N, O, P and Q) were each dissolved in dimethylsulfoxide to prepare a solution of 5000 μg/ml in concentration. The compounds of the present invention (I, J and K) and the known compound (Y) were each dissolved in sterilized distilled water to prepare a solution of 5000 μg/ml in concentration. Each solution was diluted with sterilized distilled water to prepare a standard solution with a concentration of each test compound: 1000 μg/ml. The test was carried out by a method as appointed by Japan Society of Chemotherapy [cf. Chemotherapy, 29, 76-79 (1981), TOKYO].
(§2) As to Streptococcus pneumoniae and Streptococcus pyogenes, Brain heart infusion broth (manufactured by DIFCO) was used as the medium for the preculture thereof, and a heart infusion agar medium containing 5% defibrinated horse blood (manufactured by Nissui Seiyaku K. K., Japan) was used as the medium for the measurement of minimum inhibitory concentration (MIC). As to other microorganisms, a sensitivity test broth (manufactured by Nissui Seiyaku K. K.) was used as the medium for the preculture thereof, and a sensitivity test agar medium (manufactured by Nissui Seiyaku K. K.) was used as the medium for the measurement of MIC.

[2] = test system: Staphylococcus aureus MS-353; test: MIC, Experiment 1; settings: MS353, S. aureus MS-353, Gram +, read-out: Min. inhib. concentr. (MIC)
Method: as §1, §2

[3] = test system: Staphylococcus aureus Terajima (IID 670); test: MIC, Experiment 1; settings: IID670, S. aureus Terajima (IID 670), Gram +, read-out: Min. inhib. concentr. (MIC)
Method: as §1, §2

[4] = test system: Proteus mirabilis IFO 3849; test: MIC, Experiment 1; settings: IFO3849, P. mirabilis IFO 3849, Gram -, read-out: Min. inhib. concentr. (MIC)
Method: as §1, §2

[5] = test system: Staphylococcus aureus Cowan I (IID 975); test: MIC, Experiment 1; settings: IID975, S. aureus Cowan I (IID 975), Gram +, read-out: Min. inhib. concentr. (MIC)
Method: as §1, §2

Enterobacter cloacae 963 = test: MIC, Experiment 1; settings: E. cloacae 963, Gram -, read-out: Min. inhib. concentr. (MIC)
Method: as §1, §2

[6] = test system: Streptococcus pneumoniae IID 554; test: MIC, Experiment 1; settings: IID554, S. pneumoniae IID 554, Gram +, agar with 5% defibrinated horse blood, read-out: Min. inhib. concentr. (MIC)
Method: as §1, §2

[7] = test system: Escherichia coli NIHJ JC-2; test: MIC, Experiment 1; settings: NIHJJC2, E. coli NIHJ JC-2, Gram -, read-out: Min. inhib. concentr. (MIC)
Method: as §1, §2

[8] = test system: Acinetobacter calcoaceticus Ac 54; test: MIC, Experiment 1; settings: AC54, A. calcoaceticus Ac 54, Gram -, read-out: Min. inhib. concentr. (MIC)
Method: as §1, §2

[9] = test system: Staphylococcus aureus ATCC 9144; test: MIC, Experiment 1; settings: ATCC9144, S. aureus ATCC 9144, Gram +, read-out: Min. inhib. concentr. (MIC)
Method: as §1, §2

[10] = test system: Klebsiella pneumoniae PCI-602; test: MIC, Experiment 1; settings: PCI602, K. pneumoniae PCI-602, Gram -, read-out: Min. inhib. concentr. (MIC)
Method: as §1, §2

[11] = test system: Streptococcus pyogenes Cook; test: MIC, Experiment 1; settings: S. pyogenes Cook, Gram +, agar with 5% defibrinated horse blood, read-out: Min. inhib. concentr. (MIC)
Method: as §1, §2

[12] = test system: Pseudomonas aeruginosa NCTC 10490; test: MIC, Experiment 1; settings: NCTC10490, P. aeruginosa NCTC 10490, Gram -, read-out: Min. inhib. concentr. (MIC)
Method: as §1, §2

[13] = test system: Micrococcus luteus ATCC 9341; test: MIC, Experiment 1; settings: ATCC9341, M. luteus ATCC 9341, Gram +, read-out: Min. inhib. concentr. (MIC)
Method: as §1, §2

[14] = test system: Bacillus subtilis ATCC 6633; test: MIC, Experiment 1; settings: ATCC6633, B. subtilis ATCC 6633, Gram +, read-out: Min. inhib. concentr. (MIC)
Method: as §1, §2

[15] = test system: Streptococcus pyogenes Su; test: MIC, Experiment 1; settings: S. pyogenes Su, Gram +, agar with 5% defibrinated horse blood, read-out: Min. inhib. concentr. (MIC)
Method: as §1, §2

[16] = test system: Staphylococcus aureus FDA 209P JC-1; test: MIC, Experiment 1; settings: FDA209P, S. aureus FDA 209P JC-1, Gram +, read-out: Min. inhib. concentr. (MIC)
Method: as §1, §2

Bacillus cereus IAM 1029 = test: MIC, Experiment 1; settings: IAM1029, B. cereus IAM 1029, Gram +, read-out: Min. inhib. concentr. (MIC)
Method: as §1, §2

[17] = test system: Staphylococcus aureus IID 803; test: MIC, Experiment 1; settings: IID803, S. aureus IID 803, Gram +, read-out: Min. inhib. concentr. (MIC)
Method: as §1, §2

[18] = test system: Staphylococcus aureus FDA 243; test: MIC, Experiment 1; settings: FDA243, S. aureus FDA 243, Gram +, read-out: Min. inhib. concentr. (MIC)
Method: as §1, §2

[19] = test system: Streptococcus pyogenes Sv; test: MIC, Experiment 1; settings: S. pyogenes Sv, Gram +, agar with 5% defibrinated horse blood, read-out: Min. inhib. concentr. (MIC)
Method: as §1, §2

[20] = test system: clinically isolated Staphylococcus epidermidis; test: In vitro antibacterial activity against clinical isolates, Experiment 2; settings: Staphylococcus epidermidis; for MIC90: 90% of strains, read-out: MIC90
Method: The above solutions were then diluted with sterilized distilled water to prepare a standard solution with a concentration of the test compound: 1000 μg/ml each.
For the preculture of each microorganism, there was used as the medium a sensitivity test broth (manufactured by Nissui Seiyaku K. K., Japan), and for the measurement of MIC, there was used a sensitivity test agar medium (manufactured by Nissui Seiyaku K. K.).
The clinically isolates used above were isolated from Nov. 1988 to Jun. 1989 and were obtained from Research Section, Tokyo Clinical Research Center.

[21] = 25 clinical strains S. epidermidis
[22] = 25 clinical strains S. epidermidis, 50% of strains, read-out: MIC50

SMILES	MIC [1] [µg/mL]	MIC [2] [µg/mL]	MIC [3] [µg/mL]	MIC [4] [µg/mL]	MIC [5] [µg/mL]	MIC (Enterobacter cloacae 963) [µg/mL]	MIC [6] [µg/mL]	MIC [7] [µg/mL]	MIC [8] [µg/mL]	MIC [9] [µg/mL]	MIC [10] [µg/mL]	MIC [11] [µg/mL]	MIC [12] [µg/mL]	MIC [13] [µg/mL]	MIC [14] [µg/mL]	MIC [15] [µg/mL]	MIC [16] [µg/mL]	MIC (Bacillus cereus IAM 1029) [µg/mL]	MIC [17] [µg/mL]	MIC [18] [µg/mL]	also measured
COC[C@@H]1CN(c2c(F)cc3c(=O)c(C(=O)O)c4scc5n4c3c2N(C)C5)CCO1 [Compound (O), 9,1-(Methylimino)methano-7-fluoro-8-[(2S)-2-methoxymethylmorpholino)-5-oxo-5H-thiazolo[3,2-a]quinoline-4-carboxylic acid]	0.05 (≈ 0.115 µM)	0.013 (≈ 0.03 µM)	0.025 (≈ 0.0577 µM)	0.78 (≈ 1.8 µM)	≤ 0.006	0.78 (≈ 1.8 µM)	0.05 (≈ 0.115 µM)	0.2 (≈ 0.461 µM)	0.013 (≈ 0.03 µM)	0.025 (≈ 0.0577 µM)	0.013 (≈ 0.03 µM)	0.05 (≈ 0.115 µM)	0.78 (≈ 1.8 µM)	0.1 (≈ 0.231 µM)	0.013 (≈ 0.03 µM)	0.05 (≈ 0.115 µM)	0.025 (≈ 0.0577 µM)	0.025 (≈ 0.0577 µM)	0.013 (≈ 0.03 µM)	≤ 0.006	MIC [19]: 0.05 µg/mL (≈ 0.115 µM); MIC [20, 21]: 0.006 to 0.78 µg/mL (≈ 0.0138 to 1.8 µM); MIC50 [20, 22]: 0.05 µg/mL (≈ 0.115 µM); MIC90 [20, 21]: 0.39 µg/mL (≈ 0.9 µM)
CN1Cc2csc3c(C(=O)O)c(=O)c4cc(F)c(N5CCN(C)C(CO)C5)c1c4n23 (stereo not drawn) [Compound (I), 9,1-(Methylimino)methano-7-fluoro-8-(3-hydroxymethyl-4-methyl-1-piperazinyl)-5-oxo-5H-thiazolo-[3,2-a]quinoline-4-carboxylic acid hydrochloride]	0.1	0.39	0.2	0.78	0.2	0.2	0.05	0.2	0.1	0.1	0.025	0.05	0.78	0.39	0.1	0.05	0.2	0.2	0.2	0.1	MIC [19]: 0.1 µg/mL; MIC [20, 21]: 0.05 to 3.13 µg/mL; MIC50 [20, 22]: 0.1 µg/mL; MIC90 [20, 21]: 3.13 µg/mL
COCC1CN(c2c(F)cc3c(=O)c(C(=O)O)c4scc5n4c3c2N(C)C5)CCO1 (stereo not drawn) [Compound (E), 9,1-(Methylimino)methano-7-fluoro-8-(2-methoxymethylmorpholino)-5-oxo-5H-thiazolo[3,2-a]quinoline-4-carboxylic acid]	0.05 (≈ 0.115 µM)	0.013 (≈ 0.03 µM)	0.025 (≈ 0.0577 µM)	0.78 (≈ 1.8 µM)	≤ 0.006	0.78 (≈ 1.8 µM)	0.05 (≈ 0.115 µM)	0.2 (≈ 0.461 µM)	0.013 (≈ 0.03 µM)	0.013 (≈ 0.03 µM)	0.025 (≈ 0.0577 µM)	0.05 (≈ 0.115 µM)	1.56 (≈ 3.6 µM)	0.1 (≈ 0.231 µM)	≤ 0.006	0.05 (≈ 0.115 µM)	0.025 (≈ 0.0577 µM)	0.025 (≈ 0.0577 µM)	0.013 (≈ 0.03 µM)	≤ 0.006	MIC [19]: 0.05 µg/mL (≈ 0.115 µM); MIC [20, 21]: 0.006 to 0.39 µg/mL (≈ 0.0138 to 0.9 µM); MIC50 [20, 22]: 0.05 µg/mL (≈ 0.115 µM); MIC90 [20, 21]: 0.39 µg/mL (≈ 0.9 µM)
CN1Cc2csc3c(C(=O)O)c(=O)c4cc(F)c(N5CCO[C@H](CO)C5)c1c4n23 [Compound (M), 9,1-(Methylimino)methano-7-fluoro-8-[ (2S)-2-hydroxymethylmorpholino]-5-oxo-5H-thiazolo[3,2-a]quinoline-4-carboxylic acid]	0.05 (≈ 0.119 µM)	0.025 (≈ 0.0596 µM)	0.025 (≈ 0.0596 µM)	0.39 (≈ 0.93 µM)	0.013 (≈ 0.031 µM)	0.2 (≈ 0.477 µM)	0.05 (≈ 0.119 µM)	0.1 (≈ 0.238 µM)	≤ 0.006	≤ 0.006	≤ 0.006	0.05 (≈ 0.119 µM)	0.39 (≈ 0.93 µM)	0.2 (≈ 0.477 µM)	≤ 0.006	0.025 (≈ 0.0596 µM)	0.013 (≈ 0.031 µM)	0.025 (≈ 0.0596 µM)	0.013 (≈ 0.031 µM)	≤ 0.006	MIC [19]: 0.05 µg/mL (≈ 0.119 µM); MIC50 [20]: 0.025 µg/mL (≈ 0.0596 µM); MIC [20, 21]: 0.006 to 0.78 µg/mL (≈ 0.0143 to 1.86 µM); MIC90 [20, 21]: 0.39 µg/mL (≈ 0.93 µM)
